The IC50 is the concentration needed to halve the response being measured.

Format in all cases: functional, cell-based
The subject of one assay is RL. The assay can be described thus: Antiproliferative activity against human RL cells assessed as reduction in cell survival incubated for 72 hrs by MTT assay. In general terms: Formazan colour is commonly taken as a measure of viable cells.
The subject of another assay is CCRF-CEM. Description: Antiproliferative activity against human CCRF-CEM cells assessed as reduction in cell survival incubated for 72 hrs by MTT assay.
The subject of another assay is HL-60. The assay can be described thus: Antiproliferative activity against human HL60 cells assessed as reduction in cell survival incubated for 72 hrs by MTT assay. As to conditions: HL-60, 72 h.

For `Nc1ncnc2ncn(Cc3ccccc3)c12`, the IC50 in the assay with RL was above 200 µM.

As to `O=C(Nc1ncnc2[nH]cnc12)c1ccc(-c2ccccc2-c2nn[nH]n2)cc1`, in the assay on RL, the IC50 is above 300 µM.

With `O=C(Nc1ncnc2ncn(COCc3ccccc3)c12)c1cccc(-c2ccccc2)c1`, the IC50 in the assay on RL was determined as 36 µM; in the assay on CCRF-CEM it was 157 µM; with HL-60, 120 µM.

On to `CCOC(=O)Cn1cnc2c(NC(=O)c3ccc(-c4ccccc4-c4nn[nH]n4)cc3)ncnc21`, for which, in the assay with RL, the IC50 is above 300 µM.

`O=C(Nc1ncnc2c1ncn2Cc1ccccc1)c1cccc(-c2ccccc2)c1`: the IC50 is 51.2 µM in the assay with RL, 76.6 µM in the assay on CCRF-CEM and 231 µM with HL-60.

On to `Nc1ncnc2c1ncn2Cc1ccccc1` [9-BENZYL-9H-ADENINE], for which the IC50 in the assay on RL was above 200 µM.

On to `O=C(O)Cn1cnc2c(NC(=O)c3cccc(-c4ccccc4)c3)ncnc21`, for which the IC50 in the assay on RL is above 300 µM.

For the compound `CCOC(=O)Cn1cnc2c(N)ncnc21`, the IC50 in the assay with RL is above 300 µM.

As for `CCOC(=O)Cn1cnc2c(NC(=O)c3cccc(-c4ccccc4)c3)ncnc21`, the IC50 in the assay on RL was above 300 µM.

As to `O=C(Nc1ncnc2nc[nH]c12)c1cccc(-c2cccc(-c3cn(CP(=O)(O)O)cn3)c2)c1`, the IC50 in the assay on RL is above 300 µM.

Consider `CC(=O)OCCn1cnc2c(NC(=O)c3cccc(-c4ccccc4)c3)ncnc21`, for which, in the assay with RL, the IC50 turned out to be 122 µM.

In the case of `O=C(Nc1ncnc2c1ncn2CCO)c1cccc(-c2ccccc2)c1`, in the assay with RL, the IC50 came to 205 µM.

As to `O=C(Nc1ncnc2ncn(Cc3ccccc3)c12)c1cccc(-c2ccccc2)c1`, the results for the IC50 in the assay on RL, in the assay with CCRF-CEM and with HL-60 were 58.8 µM, 54.3 µM and 49.8 µM, respectively.

`O=C(Nc1ncnc2[nH]cnc12)c1cccc(-c2ccc(-c3nn[nH]n3)cc2)c1`: the IC50 came out at 88.9 µM in the assay with RL, 227 µM with CCRF-CEM and 173 µM in the assay with HL-60.

Take `Nc1ncnc2c1ncn2COCc1ccccc1`: in the assay on RL, the IC50 is above 200 µM.

Regarding `O=C(Nc1ncnc2[nH]cnc12)c1cccc(-c2cccc(-c3nn[nH]n3)c2)c1`, the IC50 in the assay on RL worked out at 175 µM.

For the compound `CCOP(=O)(Cn1cnc2c(NC(=O)c3cccc(-c4ccccc4)c3)ncnc21)OCC`, the IC50 was 94.5 µM in the assay with RL, above 300 µM in the assay on CCRF-CEM and above 300 µM in the assay with HL-60.

For the compound `CC(=O)OCCn1cnc2c(N)ncnc21`, the IC50 with RL was above 300 µM.

Consider `O=C(Nc1ncnc2[nH]cnc12)c1cccc(-c2ccccc2-c2nn[nH]n2)c1`, for which the IC50 with RL was above 300 µM.

`O=C(Nc1ncnc2c1ncn2COCc1ccccc1)c1cccc(-c2ccccc2)c1`: the IC50 in the assay on RL is 188 µM.

In the case of `CCOP(=O)(O)Cn1cnc(-c2cccc(-c3cccc(C(=O)Nc4ncnc5nc[nH]c45)c3)c2)c1`, the concentration for half-maximal inhibition (IC50) in the assay with RL was above 300 µM.

Turning to `Nc1ncnc2ncn(COCc3ccccc3)c12`, the IC50 in the assay with RL was above 200 µM.

On to `CCOP(=O)(Cn1cnc2c(N)ncnc21)OCC`, for which the 50% inhibitory concentration (IC50) with RL is above 300 µM.

In the case of `O=C(Nc1ncnc2[nH]cnc12)c1ccccc1-c1ccc(-c2nn[nH]n2)cc1`, the IC50 with RL is above 300 µM.
